Measured values published in paper PMC11189555, “Aryl amino acetamides prevent Plasmodium falciparum ring development via targeting the lipid-transfer protein PfSTART1” (Nature Communications, 2024).

Test system: ring-stage parasites
Assay: Parasite reduction ratio assay
Assay type: cell-based, Plasmodium falciparum
Method: Parasite reduction ratio assay. This was performed as previously described 9,10.
Briefly, asynchronous ring -stage parasites at 0.5% parasitemia and 2% haematocrit were exposed to compounds at 10 x EC50 of growth for five days with daily drug renewal. After each 24 h, a well from each treatment group was taken and washed three times in complete RPMI and final volume adjusted to 2% haematocrit. The washed culture was then aliquoted into a 96 well U-bottom plate and a 1:3 serial dilution into fresh uninfected RBCs was performed with four technical replicates for each time point. Plates were maintained in normal culturing conditions: media was replaced, and fresh RBCs given 1-2 times a week for three weeks, after which parasite growth was measured via lactate dehydrogenase assays. The number of viable parasites was calculated using the formula xn-1 +1, where x is the dilution factor and n is the number of wells that contain parasite growth. The viable parasite value was then expressed in log units and parasite reduction ratio was calculated as a decrease in […]

## CCN(CC)CCCC(C)Nc1ccnc2cc(Cl)ccc12 (centres unmarked) [CQ, chloroquine, reference compound]
10xEC50: 75 nM CQ, 60 nM W-991
  killing profile: fast-acting
Replicate 1, PRR calculations
  PRR: 4.528
Replicate 1, T=1
  log(parasite viability) +1: 2.863
Replicate 1, T=1, 1:3 dilution
  Parasite viability: 729
Replicate 1, T=2
  log(parasite viability) +1: 0.6021
Replicate 1, T=2, 1:3 dilution
  Parasite viability: 3
Replicate 1, T=3
  log(parasite viability) +1: 0
Replicate 1, T=3, 1:3 dilution
  Parasite viability: 0
Replicate 1, T=4
  log(parasite viability) +1: 0
Replicate 1, T=4, 1:3 dilution
  Parasite viability: 0
Replicate 1, T=5
  log(parasite viability) +1: 0
Replicate 1, T=5, 1:3 dilution
  Parasite viability: 0
Replicate 2, Hours 0
  log(parasite viability) +1 used in PRR calculations: 5.248
Replicate 2, PRR calculations
  PRR: 2.861
Replicate 2, T=1
  Parasite viability +1: 19684
  log(parasite viability) +1: 4.294
Replicate 2, T=1, 1:3 dilution
  Parasite viability: 19683
Replicate 2, T=2
  Parasite viability +1: 10
  log(parasite viability) +1: 1
Replicate 2, T=2, 1:3 dilution
  Parasite viability: 9
Replicate 2, T=3
  Parasite viability +1: 244
  log(parasite viability) +1: 2.387
Replicate 2, T=3, 1:3 dilution
  Parasite viability: 243
Replicate 2, T=4
  Parasite viability +1: 82
  log(parasite viability) +1: 1.914
Replicate 2, T=4, 1:3 dilution
  Parasite viability: 81
Replicate 2, T=5
  Parasite viability +1: 1
  log(parasite viability) +1: 0
Replicate 2, T=5, 1:3 dilution
  Parasite viability: 0
Replicate 3, 0 hours, start value (UT T=0) used in PRR calculations
  log(parasite viability) +1: 5.248
Replicate 3, T=1
  Parasite viability (1:3 dilution): 6561
  log(parasite viability) +1: 3.817
Replicate 3, T=2
  Parasite viability (1:3 dilution): 9
Replicate 3, T=2 (48 hours in PRR calculations)
  log(parasite viability) +1: 1
Replicate 3, T=3
  Parasite viability (1:3 dilution): 0
Replicate 3, T=3 (72 hours in PRR calculations)
  log(parasite viability) +1: 0
Replicate 3, T=4
  Parasite viability (1:3 dilution): 0
  log(parasite viability) +1: 0
Replicate 3, T=5
  Parasite viability (1:3 dilution): 0
Replicate 3, T=5 (120 hours in PRR calculations)
  log(parasite viability) +1: 0
Replicate 3, difference of log viability over 48 h (CQ 0-48 hours, W991 72-120 hours)
  PRR: 4.248
